Consider 15 molecules from US11999727B2 (Tango Therapeutics, Inc., priority 2020, dated 2024).

For assay [1], the target named is T1, PRMT5 (Homo sapiens, UniProt O14744).
T1 construct: purchased Viva (custom protein)
Kind of assay: PRMT5 biochemical IC50 assay with MTA as cofactor. The settings on record: PRMT5, MTA as cofactor; read-out: MTA IC50.

In assay [2] the target is T1, PRMT5. Briefly: PRMT5 biochemical IC50 assay with SAM as cofactor. Particulars: PRMT5, SAM as cofactor; read-out: SAM IC50.
The target of assay [3] is T1, PRMT5. Kind of assay: PRMT5 biochemical IC50 assay with no cofactor. Particulars: PRMT5, no cofactor. From the text:
Table 1 indicates IC50 values (μM) against PRMT5 for exemplary compounds in the presence of SAM as cofactor, with no cofactor, and with MTA as cofactor, respectively (columns 4-6). […] Ki values can be calculated from the IC50 values as described in the Examples section. As detailed in the Examples section, for the assay performed in the presence of SAM, IC50=Ki×1.5 (Ki=IC50/1.5).

In assay [4] the test system is HAP1 MTAP-intact cell line. Kind of assay: SDMA in-cell western assay, HAP1 MTAP-intact. In kind it is cell-based. Particulars: Homo sapiens, HAP1, SDMA in-cell western, HAP1 MTAP-intact; read-out: MTAP HAP1 intact IC50. An outline of the steps:
(§1)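 Isogenic HAP1 pair: the MTAP-intact line expresses endogenous MTAP, and the deleted line is MTAP-null. Symmetric dimethylarginine was detected by in-cell western and IC50 values derived for each line.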

Assay [5] concerns HAP1 MTAP-deleted cell line. Briefly: SDMA in-cell western assay, HAP1 MTAP-deleted. In kind it is cell-based. Particulars: for IC50: Homo sapiens, HAP1, SDMA in-cell western, HAP1 MTAP-deleted; for MTAP intact/deleted ratio: SDMA in-cell western. An outline of the steps:
as §1

The test system of assay [6] is HAP1 MTAP-deleted cell line. Kind of assay: Viability assay, MTAP-deleted cell line. In kind it is cell-based. The settings on record: Homo sapiens, read-out: HAP1 MTAP deleted viability. From the text:
Table 1 additionally indicates IC50 values in a viability assay for the MTAP-deleted cell line (column 10), indicating the effect of treatment with compound on cell survival.

The mark [7] stands for this setting: read-out: HAP 1 MTAP deleted IC50.
Where [8] appears, read: IC50 ratio HAP1 MTAP-intact / HAP1 MTAP-deleted.
Where [9] appears, read: HAP1, viability IC50, MTAP-deleted cell line.
The mark [10] stands for this setting: read-out: HAP1 MTAP deleted IC50.
Setting [11] is: IC50 ratio HAP1 MTAP-intact vs HAP1 MTAP-deleted.
Where [12] appears, read: HAP1, viability assay, MTAP-deleted cell line.
Where [13] appears, read: read-out: No Cofactor/ rel IC50.
Where [14] appears, read: HAP1, viability, HAP1 MTAP-deleted cell line.
[15] abbreviates: HAP1, viability assay, HAP1 MTAP-deleted.

T1 sequence (O14744 whole entry): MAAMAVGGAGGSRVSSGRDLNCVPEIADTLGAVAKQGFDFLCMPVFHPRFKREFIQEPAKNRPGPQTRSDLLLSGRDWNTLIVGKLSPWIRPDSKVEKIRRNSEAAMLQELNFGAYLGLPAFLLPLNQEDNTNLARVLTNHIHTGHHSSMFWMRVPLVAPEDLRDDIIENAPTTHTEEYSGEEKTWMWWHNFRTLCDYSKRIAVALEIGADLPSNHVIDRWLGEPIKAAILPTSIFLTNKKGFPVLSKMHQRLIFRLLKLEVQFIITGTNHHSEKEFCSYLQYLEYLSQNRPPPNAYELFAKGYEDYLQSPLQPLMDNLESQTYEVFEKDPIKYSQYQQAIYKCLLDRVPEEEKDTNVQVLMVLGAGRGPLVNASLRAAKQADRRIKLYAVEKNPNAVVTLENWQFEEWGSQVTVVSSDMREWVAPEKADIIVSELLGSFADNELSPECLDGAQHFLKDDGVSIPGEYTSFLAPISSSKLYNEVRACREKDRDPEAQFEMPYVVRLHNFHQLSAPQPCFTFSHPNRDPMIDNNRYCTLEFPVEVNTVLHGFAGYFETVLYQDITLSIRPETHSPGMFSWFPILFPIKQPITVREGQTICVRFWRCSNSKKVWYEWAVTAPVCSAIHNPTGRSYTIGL
T1 sequence (Q9BQA1 whole entry partner): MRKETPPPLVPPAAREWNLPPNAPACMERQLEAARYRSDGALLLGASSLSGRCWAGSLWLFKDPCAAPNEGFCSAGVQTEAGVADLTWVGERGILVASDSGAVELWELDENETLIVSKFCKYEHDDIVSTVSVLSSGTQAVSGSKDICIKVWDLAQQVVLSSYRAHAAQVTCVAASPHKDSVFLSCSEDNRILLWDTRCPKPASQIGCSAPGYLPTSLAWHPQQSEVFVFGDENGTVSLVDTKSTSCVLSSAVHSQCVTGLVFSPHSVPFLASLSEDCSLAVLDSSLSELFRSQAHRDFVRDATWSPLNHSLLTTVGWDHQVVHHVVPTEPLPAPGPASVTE

As for `C[C@H]1CC[C@H](c2ccncc2)N(C(=O)C(=O)Nc2cncc(C(N)=O)c2)C1` (single isomer, unassigned) [Compound 539, 5-(2-(5-methyl-2-(pyridin-4-yl)piperidin-1-yl)-2-oxoacetamido)nicotinamide], the IC50 on PRMT5 [1] was less than 50 nM; on PRMT5 [2], 50 to 500 nM; on PRMT5 [3] (read-out: No Cofactor/rel IC50), 50 to 500 nM; in assay [4], greater than 1000 nM; in assay [5] (setting [7]) it was less than 100 nM; in assay [6] (setting [9]), 1000 to 10000 nM. For the same molecule, in assay [5] (setting [8]), the MTAP intact/deleted ratio result is on record as “A (an IC50 ratio greater than or equal to 10 fold)”.
`CCc1cc(NC(=O)C(=O)N2C[C@@H](C)[C@@H](OC(C)C)C[C@@H]2c2ccc3scnc3c2)cnc1N` (racemic) [Compound 1094, N-(6-Amino-5-ethyl-3-pyridyl)-2-[(2S,4R,5S)-2-(1,3-benzothiazol-5-yl)-4-isopropoxy-5-methyl-1-piperidyl]-2-oxo-acetamide]: the IC50 on PRMT5 [1] was 50 to 500 nM; at PRMT5 [2], 50 to 500 nM; on PRMT5 [3] (read-out: No Cofactor/rel IC50), 50 to 500 nM; in assay [4] it was 100 to 1000 nM; in assay [5] (setting [10]), less than 100 nM; in assay [6] (setting [12]), less than 1000 nM. For the same molecule, in assay [5] (setting [11]), the MTAP intact/deleted ratio result is given as “A (an IC50 ratio greater than or equal to 10 fold)”.
Take `CNc1ccc([C@@H]2CC[C@@H](C)CN2C(=O)C(=O)Nc2cncc(C(N)=O)c2)cn1` (single isomer, unassigned) [Compound 443]: the IC50 on PRMT5 [1] was less than 50 nM; at PRMT5 [2], 50 to 500 nM; on PRMT5 [3] (read-out: No Cofactor/rel IC50), less than 50 nM; in assay [4], greater than 1000 nM; in assay [5] (setting [10]), less than 100 nM; in assay [6] (setting [12]), less than 1000 nM. Moreover, in assay [5] (setting [8]), the MTAP intact/deleted ratio result is “A (an IC50 ratio greater than or equal to 10 fold)”.
Consider `Cc1cc(NC(=O)C(=O)N2C[C@H](C)CC[C@H]2c2ccc3sccc3c2)cnc1N` (single isomer, unassigned) [Compound 617], for which the IC50 on PRMT5 [1] is greater than 500 nM; at PRMT5 [2], greater than 500 nM; on PRMT5 [3] (read-out: No Cofactor/rel IC50) it was greater than 500 nM; in assay [4], greater than 1000 nM; in assay [5] (setting [7]) it was 100 to 1000 nM; in assay [6] (setting [9]), greater than 10000 nM. Besides, the MTAP intact/deleted ratio result in assay [5] (setting [8]) is recorded as “A (an IC50 ratio greater than or equal to 10 fold)”.
For `Cc1cc(NC(=O)C(=O)N2C[C@H](C)C[C@H](F)[C@@H]2c2ccc(F)cc2)cnc1N` (racemic) [Compound 940, N-(6-amino-5-methyl-3-pyridyl)-2-[(2R,3R,5S)-3-fluoro-2-(4-fluorophenyl)-5-methyl-1-piperidyl]-2-oxo-acetamide], the IC50 was 50 to 500 nM on PRMT5 [1]; 50 to 500 nM at PRMT5 [2]; 50 to 500 nM at PRMT5 [3] (read-out: No Cofactor/rel IC50); greater than 1000 nM in assay [4]; 100 to 1000 nM in assay [5] (setting [7]); 1000 to 10000 nM in assay [6] (setting [12]). Also, the MTAP intact/deleted ratio result in assay [5] (setting [8]) is listed as “A (an IC50 ratio greater than or equal to 10 fold)”.
With `COc1ncc(NC(=O)C(=O)N2C[C@@H](C)CC[C@@H]2c2ccc3sc(CCN(C)C)nc3c2)cc1C(N)=O` (racemic) [Compound 1281, 5-[[2-[(2R,5S)-2-[2-[2-(dimethylamino)ethyl]-1,3-benzothiazol-5-yl]-5-methyl-1-piperidyl]-2-oxo-acetyl]amino]-2-methoxy-pyridine-3-carboxamide], the IC50 at PRMT5 [1] was less than 50 nM; at PRMT5 [2] it was 50 to 500 nM; on PRMT5 [3] (setting [13]) it was 50 to 500 nM; in assay [4], 100 to 1000 nM; in assay [5] (setting [7]), less than 100 nM; in assay [6] (setting [14]), less than 1000 nM. Moreover, in assay [5] (setting [8]), the “MTAP intact/deleted ratio” value is “A (an IC50 ratio greater than or equal to 10 fold)”.
For `Cc1cc(NC(=O)C(=O)N2C[C@H](C)CC[C@H]2c2ccc(N3CCN(C)CC3)nc2)cnc1N` (single isomer, unassigned) [Compound 1014], the IC50 on PRMT5 [1] is less than 50 nM; on PRMT5 [2] it was 50 to 500 nM; on PRMT5 [3] (read-out: No Cofactor/rel IC50), less than 50 nM; in assay [4] it was less than 100 nM; in assay [5] (setting [7]) it was less than 100 nM; in assay [6] (setting [12]) it was less than 1000 nM. In assay [5] (setting [8]), the MTAP intact/deleted ratio entry was “B (an IC50 ratio greater than or equal to 3 fold but lower than 10 fold)”.
As for `Cc1cc(NC(=O)C(=O)N2CCCC[C@H]2c2ccncc2)cnc1N` (single isomer, unassigned) [Compound 47], the IC50 at PRMT5 [1] was greater than 500 nM; on PRMT5 [2] it was greater than 500 nM; at PRMT5 [3] (setting [13]), greater than 500 nM; in assay [4], greater than 1000 nM; in assay [5] (setting [7]) it was greater than 1000 nM; in assay [6] (setting [12]), greater than 10000 nM. The “MTAP intact/deleted ratio” value in assay [5] (setting [8]) is “C (an IC50 ratio of less than 3 fold)”.
Take `C[C@@H]1CC[C@@H](c2ccc(C(N)=O)s2)N(C(=O)C(=O)Nc2cncc(C(N)=O)c2)C1` (single isomer, unassigned) [Compound 792]: the IC50 at PRMT5 [1] is less than 50 nM; at PRMT5 [2] it was 50 to 500 nM; on PRMT5 [3] (read-out: No Cofactor/rel IC50), less than 50 nM; in assay [4] it was greater than 1000 nM; in assay [5] (setting [10]) it was less than 100 nM; in assay [6] (setting [15]) it was 1000 to 10000 nM. Further, the MTAP intact/deleted ratio result in assay [5] (setting [8]) was “A (an IC50 ratio greater than or equal to 10 fold)”.
Take `COc1ncc(NC(=O)C(=O)N2CCCCC2c2ccccc2)cc1C(N)=O` (stereo not drawn) [Compound 138, 2-methoxy-5-(2-oxo-2-(2-phenylpiperidin-1-yl)acetamido)nicotinamide]: the IC50 at PRMT5 [1] was less than 50 nM; on PRMT5 [2], 50 to 500 nM; at PRMT5 [3] (setting [13]) it was greater than 500 nM; in assay [4], greater than 1000 nM; in assay [5] (setting [7]) it was 100 to 1000 nM; in assay [6] (setting [12]), greater than 10000 nM. In addition, the “MTAP intact/deleted ratio” value in assay [5] (setting [8]) is reported as “A (an IC50 ratio greater than or equal to 10 fold)”.
As for `CCc1cc(NC(=O)C(=O)N2C[C@@H](C)CC[C@@H]2c2ccc3nn(C4CCN(C)CC4)cc3c2)cnc1N` [Compound 1321, N-(6-Amino-5-ethyl-3-pyridyl)-2-[(2R,5S)-5-methyl-2-[2-(1-methyl-4-piperidyl)indazol-5-yl]-1-piperidyl]-2-oxo-acetamide], the IC50 at PRMT5 [1] is less than 50 nM; on PRMT5 [2], less than 50 nM; on PRMT5 [3] (setting [13]), less than 50 nM; in assay [4], less than 100 nM; in assay [5] (setting [7]), less than 100 nM; in assay [6] (setting [14]) it was less than 1000 nM. In assay [5] (setting [8]), the “MTAP intact/deleted ratio” value is reported as “A (an IC50 ratio greater than or equal to 10 fold)”.
In the case of `CCc1cc(NC(=O)C(=O)N2C[C@@H](C)CC[C@@H]2c2ccc3sc(CCN(C)C4COC4)nc3c2)cnc1N` [Compound 1195, N-(6-amino-5-ethylpyridin-3-yl)-2-((2R,5S)-5-methyl-2-(2-(2-(methyl(oxetan-3-yl)amino)ethyl)benzo[d]thiazol-5-yl)piperidin-1-yl)-2-oxoacetamide], the IC50 at PRMT5 [1] was less than 50 nM; at PRMT5 [2], 50 to 500 nM; on PRMT5 [3] (read-out: No Cofactor/rel IC50) it was less than 50 nM; in assay [4] it was less than 100 nM; in assay [5] (setting [10]) it was less than 100 nM; in assay [6] (setting [12]), less than 1000 nM. Also, the MTAP intact/deleted ratio result in assay [5] (setting [11]) is “A (an IC50 ratio greater than or equal to 10 fold)”.
Take `Cc1cc(NC(=O)C(=O)N2C[C@H](C)CC[C@H]2c2cc3cn[nH]c3s2)cnc1N` (racemic) [Compound 815, N-(6-amino-5-methylpyridin-3-yl)-2-(5-methyl-2-(1H-thieno[2,3-c]pyrazol-5-yl)piperidin-1-yl)-2-oxoacetamide]: the IC50 at PRMT5 [1] is less than 50 nM; on PRMT5 [2], 50 to 500 nM; on PRMT5 [3] (read-out: No Cofactor/rel IC50) it was 50 to 500 nM; in assay [4], 100 to 1000 nM; in assay [5] (setting [10]), less than 100 nM; in assay [6] (setting [15]), less than 1000 nM. The MTAP intact/deleted ratio entry in assay [5] (setting [8]) is listed as “A* (an IC50 ratio greater than or equal to 10 fold)”.
`CCc1cc(NC(=O)C(=O)N2C[C@H](C)C(F)(F)C[C@H]2c2ccc3[nH]ncc3c2)cnc1N` (single isomer, unassigned) [Compound 1357, N-(6-amino-5-ethylpyridin-3-yl)-2-(4,4-difluoro-2-(1H-indazol-5-yl)-5-methylpiperidin-1-yl)-2-oxoacetamide]: the IC50 was less than 50 nM at PRMT5 [1]; 50 to 500 nM on PRMT5 [2]; 50 to 500 nM on PRMT5 [3] (setting [13]); less than 100 nM in assay [4]; less than 100 nM in assay [5] (setting [7]); less than 1000 nM in assay [6] (setting [14]). In addition, in assay [5] (setting [8]), the “MTAP intact/deleted ratio” value is “A (an IC50 ratio greater than or equal to 10 fold)”.
For the molecule `CC1CC(C)C(c2ccccc2)N(C(=O)C(=O)Nc2cncc(C(N)=O)c2)C1` (stereo not drawn) [Compound 183, 5-(2-(3,5-dimethyl-2-phenylpiperidin-1-yl)-2-oxoacetamido)nicotinamide], the IC50 on PRMT5 [1] is greater than 500 nM; at PRMT5 [2] it was greater than 500 nM; at PRMT5 [3] (read-out: No Cofactor/rel IC50), greater than 500 nM; in assay [4] it was greater than 1000 nM; in assay [5] (setting [10]) it was greater than 1000 nM; in assay [6] (setting [12]), greater than 10000 nM. Also, the MTAP intact/deleted ratio result in assay [5] (setting [8]) is given as “C (an IC50 ratio of less than 3 fold)”.
